Measured values from ChEMBL document CHEMBL1159082, “Phenylacetic acid regioisomers possessing a N-difluoromethyl-1,2-dihydropyrid-2-one pharmacophore: evaluation as dual inhibitors of cyclooxygenases and 5-lipoxygenase with anti-inflammatory activity” (Bioorg Med Chem Lett, 2010).

Tests used:
[1] = Inhibition of potato 5-Lipoxygenase by enzyme immuno assay; parameters: species or system Solanum tuberosum
Rattus norvegicus [2] = assay: Antiinflammatory activity against carrageenan-induced paw edema in rat at 100 mg/kg, po; assay type: functional
[3] = molecular target: T1, Prostaglandin G/H synthase 2 (Homo sapiens, UniProt P35354); assay: Inhibition of human recombinant COX2 by enzyme immuno assay
T1 sequence (P35354 whole entry): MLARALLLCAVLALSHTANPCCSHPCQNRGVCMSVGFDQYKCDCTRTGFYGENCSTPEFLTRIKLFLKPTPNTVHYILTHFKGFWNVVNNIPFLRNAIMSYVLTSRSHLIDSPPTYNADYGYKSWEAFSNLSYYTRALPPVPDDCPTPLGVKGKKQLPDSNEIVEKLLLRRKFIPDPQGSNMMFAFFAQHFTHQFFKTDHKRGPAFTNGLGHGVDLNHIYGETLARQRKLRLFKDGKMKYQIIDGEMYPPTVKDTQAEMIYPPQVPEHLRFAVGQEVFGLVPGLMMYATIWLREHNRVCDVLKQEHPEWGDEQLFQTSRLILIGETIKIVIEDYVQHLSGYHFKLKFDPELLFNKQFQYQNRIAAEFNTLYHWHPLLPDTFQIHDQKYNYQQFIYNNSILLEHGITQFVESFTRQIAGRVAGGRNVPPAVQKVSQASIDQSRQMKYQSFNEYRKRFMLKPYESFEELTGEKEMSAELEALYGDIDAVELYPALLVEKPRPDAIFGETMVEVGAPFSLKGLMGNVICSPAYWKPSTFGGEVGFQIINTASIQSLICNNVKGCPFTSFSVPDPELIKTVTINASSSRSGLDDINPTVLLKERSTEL

[4] = molecular target: T2, Prostaglandin G/H synthase 1 (Ovis aries, UniProt P05979)
T2 sequence (P05979 whole entry): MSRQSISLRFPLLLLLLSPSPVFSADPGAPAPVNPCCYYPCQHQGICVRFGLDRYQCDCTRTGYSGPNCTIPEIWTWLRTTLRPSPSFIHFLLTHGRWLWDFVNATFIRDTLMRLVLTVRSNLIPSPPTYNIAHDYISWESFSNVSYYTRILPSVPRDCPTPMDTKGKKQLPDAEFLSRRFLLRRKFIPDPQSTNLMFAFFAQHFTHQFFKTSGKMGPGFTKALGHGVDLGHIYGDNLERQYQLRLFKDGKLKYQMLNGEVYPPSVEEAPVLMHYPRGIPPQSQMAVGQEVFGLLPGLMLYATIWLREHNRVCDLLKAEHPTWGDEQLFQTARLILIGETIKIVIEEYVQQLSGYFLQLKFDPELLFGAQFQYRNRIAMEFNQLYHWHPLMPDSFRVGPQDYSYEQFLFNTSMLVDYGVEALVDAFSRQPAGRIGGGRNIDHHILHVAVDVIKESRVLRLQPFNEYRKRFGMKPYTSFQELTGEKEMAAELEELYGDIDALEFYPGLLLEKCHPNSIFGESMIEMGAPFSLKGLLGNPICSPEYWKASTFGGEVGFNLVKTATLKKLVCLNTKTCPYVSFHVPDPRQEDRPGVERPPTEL
Description: Inhibition of ovine COX1 by enzyme immuno assay

Rattus norvegicus [5] = assay: Antiinflammatory activity against carrageenan-induced paw edema in rat at 150 mg/kg, po relative to ibuprofen; assay type: functional
Rattus norvegicus [6] = assay: Antiinflammatory activity against carrageenan-induced paw edema in rat at 150 mg/kg, ip; assay type: functional; conditions: route intraperitoneal
Rattus norvegicus [7] = assay: Antiinflammatory activity against carrageenan-induced paw edema in rat at 30 mg/kg, po; assay type: functional
Rattus norvegicus [8] = assay: Antiinflammatory activity against carrageenan-induced paw edema in po dosed rat; assay type: functional

| SMILES | IC50 [1] [µM] | IC50 [3] [µM] | IC50 [4] [µM] | other results |
| --- | --- | --- | --- | --- |
| O=C(O)Cc1ccccc1-c1ccn(C(F)F)c(=O)c1 | 0.2 | 0.86 | 5.5 | inhibition in vivo at 150 mg/kg (Rattus norvegicus [5]): 19.9%; inhibition in vivo at 150 mg/kg (Rattus norvegicus [6]): 18.5% |
| O=C(O)/C=C/c1ccc(O)c(O)c1 [CAFFEIC ACID] | 4 |  |  | inhibition in vivo at 30 mg/kg (Rattus norvegicus [7]): 8.2% |
| CC(Cc1ccc(O)c(O)c1)C(C)Cc1ccc(O)c(O)c1 (configuration not stated) [NORDIHYDROGUAIARETIC ACID] |  |  |  | inhibition in vivo at 30 mg/kg (Rattus norvegicus [7]): 15.1% |
| CC(C)Cc1ccc(C(C)C(=O)O)cc1 (configuration not stated) [IBUPROFEN] |  |  |  | ED50 (Rattus norvegicus [8]): 67.4 mg/kg |
| CC(C(=O)O)c1ccc(-c2ccn(C(F)F)c(=O)c2)cc1 (configuration not stated) | 3 | 2.4 | 15.3 |  |

Second part, led by results:

| IC50 [1] [µM] | IC50 [3] [µM] | IC50 [4] [µM] | SMILES | other results |
| --- | --- | --- | --- | --- |
| 0.37 | 11.1 | > 100 | O=C(O)Cc1cccc(-c2ccn(C(F)F)c(=O)c2)c1 | inhibition in vivo at 100 mg/kg (Rattus norvegicus [2]): 11.2% |
| 3.47 | 0.89 | 9.6 | O=C(O)Cc1ccc(-c2ccn(C(F)F)c(=O)c2)cc1 |  |
| 2 | 2.6 | > 100 | CC(C(=O)O)c1ccccc1-c1ccn(C(F)F)c(=O)c1 (configuration not stated) |  |
